The results in this text go back to patent US9289405B2, “Compounds provided with antioxidant activity against free radicals, and pharmaceutical and cosmetic compositions containing them” (GIULIANI S.P.A, priority 2010, dated 2016).

Structures can show the parent of a compound that is named as a salt.

The test system of one assay is THP-1 cells. As to the kind of experiment: Modulation of the production of ROS induced by LPS, cytofluorometry with DCFH. Format: cell-based, human. The settings on record: 1 hour treatment, serum-free medium, LPS 0.1 μg/ml, compared with Trolox 100 μM, FIG. 1. How it is done:
(§1) Two cellular systems were used: NCTC 2544, a line of human keratinocytes, and THP-1, a human promyelocytic line. The results were expressed as mean±standard deviation. Each experiment was repeated at least twice.
Tributyltin (TBT) and lipopolysaccharide (LPS) are used as […] inducers of radical species. The production of ROS was evaluated by cytofluorometry techniques for the THP-1 cell line, using DCFH as stain.
The optimum times and concentrations for cytofluorometric measurement of ROS were identified in preliminary experiments.
The vitamin E derivative 6-hydroxy-2,5,7,8-tetramethylchroman-2-carboxylic acid (Trolox), at a concentration of 100 μM, was used as positive control.
The THP-1 cells were treated for 1 hour with compounds 1 and 2 of the invention at a concentration of 100 μg/ml, with compound 3 at a concentration of 200 μg/ml and with Trolox 100 μM in serum-free medium, loaded in the last 30 minutes with DCFH (10 μM) and then treated in the presence or absence of LPS (0.1 μg/ml) and analysed in the cytofluorometer.

Another assay concerns NCTC 2544 cells. As to the kind of experiment: Lipid lipoperoxidation induced by TBT, malondialdehyde content via thiobarbituric acid. The settings on record: 24 hours pre-treatment at maximum tolerated concentration, then TBT 2.5 μM for 24 hours, FIG. 2. Format: cell-based, human. How it is done:
as §1
Lipid peroxidation was evaluated on the NCTC 2544 cells by measuring the content of malondialdehyde, one of the main by-products of lipid peroxidation, through its reactivity with thiobarbituric acid. The results are expressed as absorbance/mg protein. The protein content was evaluated by the Bradford method.
The NCTC cells were treated for 24 hours in the presence or in the absence of the maximum tolerated concentration of said compounds 1, 2, 3, and then stimulated with TBT 1-2.5 μM for a further 24 hours.
Trolox 100 μM was used as positive control.

As to `C/C=C/C=C/C=C/C(=O)O` [compound 1, 2E,4E,6E-octatrienoic acid], the “production of ROS induced by LPS” value in the assay on THP-1 cells (compound at 100 μg/ml) is on record as “nullifying the production of ROS induced by LPS 0.1 μg/ml to an extent not less than Trolox”. In the assay on NCTC 2544 cells, the “lipoperoxidation induced by TBT (malondialdehyde content)” value is recorded as “statistically significant (p<0.05) decrease of lipoperoxidation”.

Consider `C/C=C/C=C/C=C/C(=O)[O-].[K+]` [compound 2, potassium 2E,4E,6E-octatrienoate], for which, in the assay with THP-1 cells (compound at 100 μg/ml), the “production of ROS induced by LPS” value was “nullifying the production of ROS induced by LPS 0.1 μg/ml to an extent not less than Trolox”. Moreover, the “lipoperoxidation induced by TBT (malondialdehyde content)” value in the assay with NCTC 2544 cells is on record as “statistically significant (p<0.05) decrease of lipoperoxidation”. With `C/C=C/C=C/C=C/C(=O)O` [compound 3, 2E,4E,6E-octatrienoic acid, L-lysine salt], in the assay with THP-1 cells (compound at 200 μg/ml), the “production of ROS induced by LPS” value is recorded as “nullifying the production of ROS induced by LPS 0.1 μg/ml to an extent not less than Trolox”.
